Assay results as given in patent US12447137B2, “Composition for prevention, amelioration, or treatment of cancer” (EWHA UNIVERSITY—INDUSTRY COLLABORATION FOUNDATION, priority 2019, dated 2025).

Columns and labels:
[1] = Body weight / toxicity in xenograft animal model; assay type: in vivo, mouse; conditions: 4 mg/kg tail vein (IV) once every 3 days, 6 times; FIG. 8C
Excerpt: After 4-week-old athymic nude mice (female) were purchased, only healthy mice were selected while the mice were adapted to the environment of the animal breeding room for 7 days. For identification of each mouse, the ears were marked using an ear punch. In addition, the breeding box was identified by attaching a mouse identification card describing the test number, test substance name, test item, receipt date, test date, test content, and the person in charge of the test. The environment of the animal breeding room was maintained at a temperature of 22±3° C., a relative humidity of 50±20%, 10 to 15 ventilations/hour, a 12-hour light (8:30 to 20:30)/dark cycle, and an illuminance of 150 to 300 lux. In addition, the animals were fed feed and drinking water during the breeding period, and quarantined during the acclimatization and testing periods. […]
During a period ranging from the day the mouse breast cancer cell line 4T1-luc was injected to the end of the experiment (dissection date), the tumor volume was measured every day. […] In order to confirm the tumor regression effect, the volume of the tumor was measured before administration of the compound of Production Example 6, and at day 28 after the first administration of the compound of Production Example 6, the animals were euthanized, and the primary tumors were excised and their volumes were compared.

[2] = system: 4T1-luc orthotopic graft (fat pad, s.c.); test: Survival rate in orthotopic animal model; assay type: in vivo, mouse; conditions: 20 mg/kg intraperitoneal once every 3 days, 6 times; compared to Vehicle; FIG. 8D
Excerpt: After 4-week-old athymic nude mice (female) were purchased, only healthy mice were selected while the mice were adapted to the environment of the animal breeding room for 7 days. For identification of each mouse, the ears were marked using an ear punch. In addition, the breeding box was identified by attaching a mouse identification card describing the test number, test substance name, test item, receipt date, test date, test content, and the person in charge of the test. The environment of the animal breeding room was maintained at a temperature of 22±3° C., a relative humidity of 50±20%, 10 to 15 ventilations/hour, a 12-hour light (8:30 to 20:30)/dark cycle, and an illuminance of 150 to 300 lux. In addition, the animals were fed feed and drinking water during the breeding period, and quarantined during the acclimatization and testing periods.
The nude mice were anesthetized by inhalation with 2.5% isoflurane, and then injected with the mouse breast cancer cell line 4T1-luc of Experimental Method 1 by a sterile syringe. […]
During a period ranging from the day the mouse breast cancer cell line 4T1-luc was injected to the end of the experiment (the date of death), the volume of the tumor was measured once every 3 days and the survival rate of the animal model was checked every day. […]

[3] = system: secreted MMP2 and MMP9; test: Secreted MMP2 and MMP9 levels, TGF-β1-treated BT549 cells; assay type: cell-based, human; conditions: BT549, with TGF-β1; FIG. 7B
Description: The culture medium of the breast cancer cell line of Experimental Method 1 was replaced with a serum-free medium. Then, the cells were treated with 2 ng/mL of TGF-β1 and the compound of Preparation Example 6 and cultured for 20 to 24 hours. Thereafter, as described in Experimental Method 3, the expression level of the protein was measured using an antibody specific for the EMT-related protein.

[4] = system: MDA-MB-231 cell line; test: Flow cytometry assay (Annexin V / PI); assay type: cell-based, human; conditions: MDA-MB-231, 0 to 30 μM, 24 hours; FIG. 6
Description: The breast cancer cell line of Experimental Method 1 was treated with the compound of Production Example 6 at a concentration of 0 to 30 μM and cultured for 24 hours. Thereafter, the cultured cells were detached by trypsin, and then double-stained with Annexin V; recognizing apoptosis) and PI (propidium iodide; recognizing cell necrosis), and then the pattern and level of apoptosis were measured using flow cytometry.

[5] = system: p-AMPK (Thr172); test: AMPK activation by p-AMPK (Thr172) Western blot in pancreatic cancer cell lines; assay type: cell-based, human; conditions: 10 μM, 12 hours, compared to untreated group
Description: [3-2] The three breast cancer cell lines (4T1, BT549, and MDA-MB-231) of Experimental Method 1 were treated with each of the compound of Production Example 6 and 13 compounds, including the compounds of Production Examples 1 to 5 and 8 to 15 having a similar structure (YE-01, 02, 03, 04, 05, 08, 09, 10, 11, 12, 13, 14 and 15), at a concentration of 10 μM, and then cultured for 24 hours. In addition, each of two types of gastric cancer cell lines, brain cancer cell lines and pancreatic cancer cell lines was treated with the compound of Production Example 6 or the compound of Production Example 8 having a similar structure at a concentration of 10 μM and then cultured for 12 hours. Thereafter, the cells were harvested and lysed in RIPA buffer, and the protein was electrophoresed by SDS-PAGE, and then the expression level of the protein was analyzed using antibodies specific for AMPK and phospho-AMPK (Thr172). GAPDH or β-actin was used as a loading control for protein quantification.

[6] = system: AMPK; test: Cellular thermal shift assay (CTSA) of AMPK protein, Western blot; assay type: binding, human; conditions: cells treated with compound; AMPK protein alone Tm 50° C.; FIG. 1
Description: In order to examine whether or not the compound of Production Example 6 and 13 compounds, including the compounds of Production Examples 1 to 5 and 8 to 15 having a similar structure (YE-01, 02, 03, 04, 05, 08, 09, 10, 11, 12, 13, 14 and 15), bind to the AMP binding site of AMPK, cellular thermal shift assay (CTSA) was performed. Specifically, the cultured human breast cancer-derived cell line (BT549 or MDA-MB-231 cell line) was detached from the culture dish using trypsin. The detached cell line was diluted in PBS, and the same amount of the cells were dispensed in each tube for PCR and heated for 3 minutes at a temperature of room temperature to 65° C. After completion of the heating, protein was isolated from the cell line using liquid nitrogen, and Western blot analysis was performed to confirm the temperature at which AMPK would be denatured by heat.

[7] = system: 4T1 cell line; test: Clonogenic assay; assay type: cell-based, mouse; conditions: 4T1, 10 μM; FIG. 2B
Description: (§1) The breast cancer cell line of Experimental Method 1 was dispensed into a 6-well plate at a density of 1 to 2×10^3 cells/well. After the cells were sufficiently attached, they were treated with the compound of Production Example 6 at a concentration of 0 to 30 μM and cultured for 10 days to 14 days. Next, the cultured cells were fixed with 4% formaldehyde and stained with 1% crystal violet, and the colonies were counted under a microscope.

[8] = system: MDA-MB-231 cell line; test: Clonogenic assay; assay type: cell-based, human; conditions: MDA-MB-231, 10 μM; FIG. 2B
Description: as §1

[9] = system: BT549 cell line; test: Clonogenic assay; assay type: cell-based, human; conditions: BT549, 10 μM; FIG. 2B
Description: as §1

Compound: COc1ccc(OC)c(/C=C/C(=O)c2ccc(NS(=O)(=O)c3ccc(Cl)cc3)cc2)c1 [Production Example 6, (E)-4-chloro-N-(4-(3-(2,5-dimethoxyphenyl)acryloyl)phenyl)benzenesulfonamide]
- weight loss depending on the breeding time [1]: no weight loss
- survival rate [2]: significantly improved
- level of secreted MMP2 [3]: significantly decreased
- level of secreted MMP9 [3]: significantly decreased
- cells stained with annexin V or PI [4]: increased in a concentration-dependent manner
- expression of p-AMPK [5]: increased
- Tm value of AMPK protein [6]: 55 °C
- colony formation [7]: significantly reduced
- colony formation [8]: significantly reduced
- colony formation [9]: significantly reduced
